The results in this text go back to patent US9040545B2, “Heterocyclyl pyrazolopyrimidine analogues as selective JAK inhibitors” (Cellzome Limited, priority 2010, dated 2015).

SMILES strings stand for the structures.

The target of one experiment is T1, JAK2 (Homo sapiens, UniProt O60674).
T1 construct: endogenous in cells; host or cells: mixed Molt4/Ramos lysate (1:2)
In words: Kinobeads assay, JAK2. Type of experiment: binding. To be noted: mixed Molt4/Ramos lysate, read-out: Inhibition values (IC50) JAK2. In short, it runs like this: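 Competition binding in mixed Molt4/Ramos cell lysate (1:2, 10 mg/mL protein) with Kinobeads carrying immobilized aminopyrido-pyrimidine ligand, 3 h in cold room; 9-step 1:3 compound dilution series from 5 mM DMSO stock. Bead-bound JAK2/JAK3 eluted and quantified by antibody dot blot with infrared detection; IC50 from dose-response curves.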

A further experiment concerns the target T2, Aurora A (Homo sapiens, UniProt O14965).
T2 construct: cell lysates from Jurkat cells (ATCC TIB-152) used; endogenous in cells; host or cells: Jurkat cells (ATCC TIB-152), treated with pervanadate
T2 sequence (O14965 1-403): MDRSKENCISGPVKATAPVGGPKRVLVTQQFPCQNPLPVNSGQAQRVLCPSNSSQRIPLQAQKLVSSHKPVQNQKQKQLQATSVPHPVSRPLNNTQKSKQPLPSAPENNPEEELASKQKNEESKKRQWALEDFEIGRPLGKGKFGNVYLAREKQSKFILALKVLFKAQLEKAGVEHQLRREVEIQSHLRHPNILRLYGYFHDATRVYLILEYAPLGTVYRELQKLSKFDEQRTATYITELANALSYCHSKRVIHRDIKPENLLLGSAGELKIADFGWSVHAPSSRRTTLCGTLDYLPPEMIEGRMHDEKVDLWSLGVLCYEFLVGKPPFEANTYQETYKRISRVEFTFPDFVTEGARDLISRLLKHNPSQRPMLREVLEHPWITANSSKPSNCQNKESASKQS
Briefly: Kinobeads assay, Aurora A. To be noted: for IC50: lysate of pervanadate-treated Jurkat cells, read-out: Inhibition values (IC50) Aur A. Type of experiment: binding.

T1 sequence (O60674 whole entry): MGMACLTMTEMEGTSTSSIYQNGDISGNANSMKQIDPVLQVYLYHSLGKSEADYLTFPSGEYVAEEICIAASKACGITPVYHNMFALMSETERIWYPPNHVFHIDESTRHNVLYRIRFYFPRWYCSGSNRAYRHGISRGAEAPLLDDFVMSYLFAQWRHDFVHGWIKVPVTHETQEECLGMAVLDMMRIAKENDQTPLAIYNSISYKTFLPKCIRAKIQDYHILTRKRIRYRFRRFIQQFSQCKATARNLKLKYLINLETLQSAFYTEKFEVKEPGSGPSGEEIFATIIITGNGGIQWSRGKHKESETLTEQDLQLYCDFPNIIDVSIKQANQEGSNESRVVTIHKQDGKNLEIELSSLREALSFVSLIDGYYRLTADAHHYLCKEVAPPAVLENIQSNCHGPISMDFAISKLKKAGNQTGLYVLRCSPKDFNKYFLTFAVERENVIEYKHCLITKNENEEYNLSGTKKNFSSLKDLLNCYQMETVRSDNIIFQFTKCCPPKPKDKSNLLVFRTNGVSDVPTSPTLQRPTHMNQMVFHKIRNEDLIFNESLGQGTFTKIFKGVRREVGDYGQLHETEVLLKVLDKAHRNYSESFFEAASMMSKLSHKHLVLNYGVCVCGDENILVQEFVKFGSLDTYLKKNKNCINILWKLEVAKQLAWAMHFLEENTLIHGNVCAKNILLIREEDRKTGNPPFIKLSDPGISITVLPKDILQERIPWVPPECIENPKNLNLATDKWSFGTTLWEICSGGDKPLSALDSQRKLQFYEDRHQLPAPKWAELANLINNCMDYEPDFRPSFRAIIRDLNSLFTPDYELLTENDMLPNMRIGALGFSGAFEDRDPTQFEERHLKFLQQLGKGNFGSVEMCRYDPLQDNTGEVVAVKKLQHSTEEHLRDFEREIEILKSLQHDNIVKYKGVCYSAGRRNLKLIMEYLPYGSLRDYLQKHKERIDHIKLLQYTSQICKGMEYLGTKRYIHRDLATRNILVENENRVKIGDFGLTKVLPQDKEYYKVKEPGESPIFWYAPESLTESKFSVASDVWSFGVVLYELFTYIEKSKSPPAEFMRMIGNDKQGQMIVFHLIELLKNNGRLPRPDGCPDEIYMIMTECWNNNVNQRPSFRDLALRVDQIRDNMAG

As a reminder, the IC50 is the concentration that gives 50% inhibition. Consider `OCCn1cc(Nc2ncc3cnn(Cc4c(F)ccc(N5CCOCC5)c4F)c3n2)cn1` [Example 82, 2-(4-((1-(2,6-Difluoro-3-morpholinobenzyl)-1H-pyrazolo[3,4-d]pyrimidin-6-yl)amino)-1H-pyrazol-1-yl)ethanol], for which, at JAK2, the IC50 is ≥ 10 µM. Moreover, at Aurora A, the “JAK3/AurA Fold Selectivity” value was 3-10 Fold and the IC50 lay within 100 to 1000 nM.
As for `OCCn1cc(Nc2ncc3cnn(Cc4cccc(N5CCNCC5)c4F)c3n2)cn1` [Example 83, 2-(4-((1-(2-Fluoro-3-(piperazin-1-yl)benzyl)-1H-pyrazolo[3,4-d]pyrimidin-6-yl)amino)-1H-pyrazol-1-yl)ethanol], at JAK2, the IC50 is 1 to 10 µM. In addition, at Aurora A, the “JAK3/AurA Fold Selectivity” value was 10-50 Fold and the IC50 lay in the range of 100 to 1000 nM.
As to `O=C1COCCN1c1cc(F)cc(Cn2ncc3cnc(Nc4cn[nH]c4)nc32)c1` [Example 84, 4-(3-((6-((1H-Pyrazol-4-yl)amino)-1H-pyrazolo[3,4-d]pyrimidin-1-yl)methyl)-5-fluorophenyl)morpholin-3-one], the IC50 at JAK2 fell in the range of 0.1 to 1 µM. Besides, at Aurora A, the “JAK3/AurA Fold Selectivity” value is reported as >50 Fold and the IC50 was 100 to 1000 nM.
Consider `O=C(c1cccc(Cn2ncc3cnc(Nc4cnn(CCO)c4)nc32)c1F)N1CCOCC1` [Example 85, (2-Fluoro-3-((6-((1-(2-hydroxyethyl)-1H-pyrazol-4-yl)amino)-1H-pyrazolo[3,4-d]pyrimidin-1-yl)methyl)phenyl)(morpholino)methanone], for which the IC50 on JAK2 was in the range of 1 to 10 µM. Further, at Aurora A, the “JAK3/AurA Fold Selectivity” value is on record as >50 Fold and the IC50 fell in the range of 100 to 1000 nM.
For `Cn1cc(Nc2ncc3cnn(Cc4cc(N5CCNCC5)cc(F)c4F)c3n2)cn1` [Example 86, 1-(2,3-Difluoro-5-(piperazin-1-yl)benzyl)-N-(1-methyl-1H-pyrazol-4-yl)-1H-pyrazolo[3,4-d]pyrimidin-6-amine], in that order: 1 to 10 µM, >50 Fold and 1000 to 10000 nM.
With `Cn1cc(Nc2ncc3cnn(Cc4cccc(C(=O)N5CCOCC5)c4F)c3n2)cn1` [Example 87, (2-Fluoro-3-((6-((1-methyl-1H-pyrazol-4-yl)amino)-1H-pyrazolo[3,4-d]pyrimidin-1-yl)methyl)phenyl)(morpholino)methanone], at JAK2, the IC50 lay in the range of 1 to 10 µM. At Aurora A, the “JAK3/AurA Fold Selectivity” value was >50 Fold and the IC50 was in the range of 1000 to 10000 nM.
As to `Cn1cc(Nc2ncc3cnn(Cc4cccc(N5CCOCC5O)c4)c3n2)cn1` (stereo not drawn) [Example 88, 4-(3-((6-((1-Methyl-1H-pyrazol-4-yl)amino)-1H-pyrazolo[3,4-d]pyrimidin-1-yl)methyl)phenyl)morpholin-3-ol], the IC50 on JAK2 is ≥ 10 µM. Also, on Aurora A, the “JAK3/AurA Fold Selectivity” value was 10-50 Fold and the IC50 is 1000 to 10000 nM.
